Measured values taken from ChEMBL document CHEMBL1130242, “3 Beta-(4-ethyl-3-iodophenyl)nortropane-2 beta-carboxylic acid methyl ester as a high-affinity selective ligand for the serotonin transporter” (J Med Chem, 1997).

Legend:
[1] = target: Monoamine transporters; Norepininephrine & dopamine (Rattus norvegicus) (UniProt P23977+Q9WTR4); test: Selectivity ratio is IC50 value of NET to that of DAT; assay type: protein assay
[2] = target: Sodium-dependent dopamine transporter (Rattus norvegicus, UniProt P23977); test: In vitro inhibitory activity against radioligand [3H]-[…] binding to dopamine transporter (DAT) in rat striatal tissue; assay type: tissue-based, Striatum
Sequence of Sodium-dependent dopamine transporter (P23977 whole entry): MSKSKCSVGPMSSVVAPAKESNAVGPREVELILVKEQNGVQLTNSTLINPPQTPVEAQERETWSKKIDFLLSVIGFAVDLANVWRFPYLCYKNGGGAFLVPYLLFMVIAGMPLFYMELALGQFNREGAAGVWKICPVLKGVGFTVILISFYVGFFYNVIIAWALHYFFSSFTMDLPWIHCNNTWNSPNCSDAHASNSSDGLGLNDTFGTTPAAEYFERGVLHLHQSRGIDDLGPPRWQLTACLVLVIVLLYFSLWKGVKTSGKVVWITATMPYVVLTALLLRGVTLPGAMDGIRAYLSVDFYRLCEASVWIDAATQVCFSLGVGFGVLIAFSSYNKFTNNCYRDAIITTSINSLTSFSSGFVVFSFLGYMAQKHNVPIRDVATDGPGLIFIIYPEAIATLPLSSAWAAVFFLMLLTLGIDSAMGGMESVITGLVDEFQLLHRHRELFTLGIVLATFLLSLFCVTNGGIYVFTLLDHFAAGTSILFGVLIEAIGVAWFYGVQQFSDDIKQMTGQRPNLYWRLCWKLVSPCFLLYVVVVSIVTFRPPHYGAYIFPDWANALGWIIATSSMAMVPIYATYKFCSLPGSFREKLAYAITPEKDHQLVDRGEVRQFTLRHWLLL

[3] = target: Norepinephrine transporter (Rattus norvegicus, UniProt Q9WTR4); test: In vitro inhibitory activity against radioligand [3H]-[…] binding to norepinephrine transporter (NET) in rat cortical tissue
Sequence of Norepinephrine transporter (Q9WTR4 whole entry): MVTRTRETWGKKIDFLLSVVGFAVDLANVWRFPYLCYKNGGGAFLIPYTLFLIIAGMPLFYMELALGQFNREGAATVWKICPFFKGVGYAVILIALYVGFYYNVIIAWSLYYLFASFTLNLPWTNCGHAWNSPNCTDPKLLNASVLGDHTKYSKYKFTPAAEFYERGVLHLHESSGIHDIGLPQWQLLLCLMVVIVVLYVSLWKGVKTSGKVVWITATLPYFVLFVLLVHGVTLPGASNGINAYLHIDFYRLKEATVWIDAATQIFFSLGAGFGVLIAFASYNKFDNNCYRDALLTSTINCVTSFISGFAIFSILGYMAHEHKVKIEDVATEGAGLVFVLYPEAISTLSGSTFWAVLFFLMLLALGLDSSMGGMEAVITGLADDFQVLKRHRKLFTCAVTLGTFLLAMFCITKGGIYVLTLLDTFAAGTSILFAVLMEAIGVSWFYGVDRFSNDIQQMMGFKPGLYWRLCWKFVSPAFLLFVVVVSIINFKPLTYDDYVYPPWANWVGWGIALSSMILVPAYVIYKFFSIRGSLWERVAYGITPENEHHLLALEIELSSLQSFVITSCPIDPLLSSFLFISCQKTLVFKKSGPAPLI

[4] = target: Monoamine transporters; serotonin & dopamine (Rattus norvegicus) (UniProt P31652+P23977); test: Selectivity ratio is IC50 value of 5-HTT to that of DAT; assay type: protein assay
Sequence of Monoamine transporters; serotonin & dopamine (Rattus norvegicus) (P23977 whole entry, looked up): as the sequence (P23977 whole entry) above
Sequence of Monoamine transporters; serotonin & dopamine (Rattus norvegicus) (P31652 whole entry, looked up): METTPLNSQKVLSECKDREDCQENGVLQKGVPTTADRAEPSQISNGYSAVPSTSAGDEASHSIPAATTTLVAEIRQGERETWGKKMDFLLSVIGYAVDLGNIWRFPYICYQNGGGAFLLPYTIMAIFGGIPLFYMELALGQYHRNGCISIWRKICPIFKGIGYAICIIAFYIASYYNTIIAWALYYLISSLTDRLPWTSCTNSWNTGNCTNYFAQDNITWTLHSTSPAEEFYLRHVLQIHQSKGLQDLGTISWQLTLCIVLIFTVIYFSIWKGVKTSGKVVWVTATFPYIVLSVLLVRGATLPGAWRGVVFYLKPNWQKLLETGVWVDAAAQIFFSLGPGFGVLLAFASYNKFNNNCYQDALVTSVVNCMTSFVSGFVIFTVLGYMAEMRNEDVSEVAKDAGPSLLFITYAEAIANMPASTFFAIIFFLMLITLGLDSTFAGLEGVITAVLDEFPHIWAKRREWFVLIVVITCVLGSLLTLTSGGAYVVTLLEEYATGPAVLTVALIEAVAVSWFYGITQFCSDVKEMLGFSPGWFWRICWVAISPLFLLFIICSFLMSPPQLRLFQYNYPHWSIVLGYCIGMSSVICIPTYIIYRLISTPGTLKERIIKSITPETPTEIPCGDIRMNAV

[5] = target: Sodium-dependent serotonin transporter (Rattus norvegicus, UniProt P31652); test: In vitro inhibitory activity against radioligand [3H]paroxetine binding to serotonin transporter (5-HTT) in rat midbrain tissue; assay type: tissue-based
Sequence of Sodium-dependent serotonin transporter (P31652 whole entry): as the sequence (P31652 whole entry, looked up) above

SMILES | Ratio [1] | IC50 [2] [µM] | IC50 [3] [µM] | Ratio [4] | IC50 [5] [µM]
COC(=O)C1C(c2ccc(Cl)cc2)CC2CC[C@H]1N2 (some centres undefined) | 7 | 0.00062 | 0.00413 | 9 | 0.00545
COC(=O)C1C(c2cccc(I)c2)CC2CC[C@H]1N2C (some centres undefined) | 61 | 0.026 | 1.59 | 1.5 | 0.0388
CCc1ccc(C2CC3CC[C@H](C2C(=O)OC)N3C)cc1 (some centres undefined) | 71 |  | 0.039 | 0.52 | 
CCc1ccc(C2CC3CC[C@@H](N3)C2C(=O)OC)cc1I (some centres undefined) | 40 | 0.329 | 0.148 | 87 | 
CCc1ccc(C2CC3CC[C@@H](N3)C2C(=O)OC)cc1 (some centres undefined) | 2.5 |  |  | 0.2 | 
